Data set [1] concerns HeLa. Kind of data set: Induction of apoptosis in human HeLa cells assessed as dead cells at 2.5 uM incubated for 36 hrs by Annexin V-FITC/PI staining based flow cytometric analysis (reference value: 0.44 %). The data set is classed as functional.
Data set [2] relates to HeLa. Description: Induction of apoptosis in human HeLa cells assessed as viable cells at 1.25 uM incubated for 36 hrs by Annexin V-FITC/PI staining based flow cytometric analysis (reference value: 96.14 %). The following applies: read-out: Activity. The data set is classed as functional. (Flow cytometry measures light scatter and fluorescence of single cells or particles in a stream.)

Data set [3] has as its system HeLa. Kind of data set: Induction of apoptosis in human HeLa cells assessed as late apoptotic cells at 0.15625 uM incubated for 36 hrs by Annexin V-FITC/PI staining based flow cytometric analysis (reference value: 1.4 %). The data set is classed as functional. The following applies: 0.1562 µM.
The test system of data set [4] is HeLa. Kind of data set: Induction of apoptosis in human HeLa cells assessed as dead cells at 1.25 uM incubated for 36 hrs by Annexin V-FITC/PI staining based flow cytometric analysis (reference value: 0.44 %). The data set is classed as functional.
The nature of data set [5]: Toxicity in BALB/c nude mouse xenografted with human HeLa cells assessed as reduction in body weight at 15 to 60 mg/kg, IG administered daily for 30 days and measured every 2 days. The class given is organism-based. The conditions noted are these: in vivo, po, 720 h, dose 15-60 mg/kg, time 30 day. For orientation: In xenograft studies the graft and the host belong to different species.

Data set [6] has as its system HeLa. Kind of data set: Antitumor activity against human HeLa cells xenografted in BALB/c nude mouse assessed as tumor growth inhibition at 30 mg/kg, IG administered daily for 30 days and measured every 2 days relative to control. The data set is classed as functional. The following applies: po, 720 h, time 30 day, read-out: TGI.
Data set [7] can be described thus: Toxicity in BALB/c nude mouse xenografted with human SW620 cells assessed as reduction in body weight at 15 to 60 mg/kg, IG administered daily for 30 days and measured every 2 days. The class given is organism-based, SW-620. The following applies: in vivo, po, 720 h, dose 15-60 mg/kg, time 30 day.
The target of data set [8] is Phosphatidylinositol 4,5-bisphosphate 3-kinase catalytic subunit alpha isoform (Homo sapiens, UniProt P42336). Kind of data set: Inhibition of PI3Kalpha (unknown origin) using PIP2 as substrate incubated for 1 hr in presence of ATP by Kinase Glo luminescence assay. In general terms: In Kinase-Glo more light means more ATP remaining.
Sequence of Phosphatidylinositol 4,5-bisphosphate 3-kinase catalytic subunit alpha isoform (P42336 whole entry, canonical isoform): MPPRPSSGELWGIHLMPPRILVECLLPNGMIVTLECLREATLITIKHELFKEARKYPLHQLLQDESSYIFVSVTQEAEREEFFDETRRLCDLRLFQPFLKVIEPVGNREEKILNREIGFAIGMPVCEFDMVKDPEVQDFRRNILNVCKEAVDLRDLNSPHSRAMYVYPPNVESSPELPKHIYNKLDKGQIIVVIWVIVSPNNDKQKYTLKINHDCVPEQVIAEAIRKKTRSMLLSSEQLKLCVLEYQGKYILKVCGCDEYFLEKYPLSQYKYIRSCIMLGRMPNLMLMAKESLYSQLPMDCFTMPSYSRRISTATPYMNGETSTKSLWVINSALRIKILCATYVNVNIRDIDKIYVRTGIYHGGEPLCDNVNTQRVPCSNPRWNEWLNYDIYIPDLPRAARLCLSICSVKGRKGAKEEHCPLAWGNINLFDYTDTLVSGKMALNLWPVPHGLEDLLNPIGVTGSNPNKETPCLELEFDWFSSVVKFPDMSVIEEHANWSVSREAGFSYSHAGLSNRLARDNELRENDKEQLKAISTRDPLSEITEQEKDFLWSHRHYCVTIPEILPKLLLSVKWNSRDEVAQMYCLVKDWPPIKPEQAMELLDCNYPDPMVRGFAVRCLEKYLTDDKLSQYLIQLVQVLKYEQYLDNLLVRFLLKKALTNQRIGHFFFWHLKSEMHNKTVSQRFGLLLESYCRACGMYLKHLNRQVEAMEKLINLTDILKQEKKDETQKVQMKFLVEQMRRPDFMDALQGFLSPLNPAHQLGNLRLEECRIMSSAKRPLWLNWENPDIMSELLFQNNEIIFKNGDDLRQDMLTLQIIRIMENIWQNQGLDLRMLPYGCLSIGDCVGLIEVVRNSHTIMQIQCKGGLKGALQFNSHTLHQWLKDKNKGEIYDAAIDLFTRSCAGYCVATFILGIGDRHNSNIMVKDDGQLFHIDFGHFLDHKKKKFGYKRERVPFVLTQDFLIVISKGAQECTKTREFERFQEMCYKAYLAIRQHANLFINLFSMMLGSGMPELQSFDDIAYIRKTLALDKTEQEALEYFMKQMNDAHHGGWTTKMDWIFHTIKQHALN
The test system of a further data set is L02. Description: Cytotoxicity against human L02 cells assessed as reduction in cell viability at 0.3125 to 10 uM incubated for 48 to 72 hrs by MTT assay. The class given is toxicity, cell-based. The following applies: l02, 10 µM, dose lower 0.3125 µM, time lower 48 hrs, dose upper 10 µM, time upper 72 hrs.
The subject of the next data set is NCI-H3122. Kind of data set: Antiproliferative activity against human NCI-H3122 cells assessed as inhibition of cell growth incubated for 48 to 72 hrs by MTT assay. The class given is functional, cell-based.
Data set [9] in a line: Toxicity in BALB/c nude mouse xenografted with human HeLa cells assessed as pathological changes in heart at 60 mg/kg, IG administered daily for 30 days by hematoxylin and eosin staining based microscopic analysis. The class given is organism-based. The conditions noted are these: in vivo, po, 720 h, time 30 day.
The target of data set [10] is Phosphatidylinositol 4,5-bisphosphate 3-kinase catalytic subunit beta isoform (Homo sapiens, UniProt P42338). Kind of data set: Inhibition of PI3Kbeta (unknown origin) using L-alpha-phosphatidylinositol as substrate incubated for 60 mins in presence of ATP by Kinase Glo luminescence assay.
Sequence of Phosphatidylinositol 4,5-bisphosphate 3-kinase catalytic subunit beta isoform (P42338 whole entry, canonical isoform): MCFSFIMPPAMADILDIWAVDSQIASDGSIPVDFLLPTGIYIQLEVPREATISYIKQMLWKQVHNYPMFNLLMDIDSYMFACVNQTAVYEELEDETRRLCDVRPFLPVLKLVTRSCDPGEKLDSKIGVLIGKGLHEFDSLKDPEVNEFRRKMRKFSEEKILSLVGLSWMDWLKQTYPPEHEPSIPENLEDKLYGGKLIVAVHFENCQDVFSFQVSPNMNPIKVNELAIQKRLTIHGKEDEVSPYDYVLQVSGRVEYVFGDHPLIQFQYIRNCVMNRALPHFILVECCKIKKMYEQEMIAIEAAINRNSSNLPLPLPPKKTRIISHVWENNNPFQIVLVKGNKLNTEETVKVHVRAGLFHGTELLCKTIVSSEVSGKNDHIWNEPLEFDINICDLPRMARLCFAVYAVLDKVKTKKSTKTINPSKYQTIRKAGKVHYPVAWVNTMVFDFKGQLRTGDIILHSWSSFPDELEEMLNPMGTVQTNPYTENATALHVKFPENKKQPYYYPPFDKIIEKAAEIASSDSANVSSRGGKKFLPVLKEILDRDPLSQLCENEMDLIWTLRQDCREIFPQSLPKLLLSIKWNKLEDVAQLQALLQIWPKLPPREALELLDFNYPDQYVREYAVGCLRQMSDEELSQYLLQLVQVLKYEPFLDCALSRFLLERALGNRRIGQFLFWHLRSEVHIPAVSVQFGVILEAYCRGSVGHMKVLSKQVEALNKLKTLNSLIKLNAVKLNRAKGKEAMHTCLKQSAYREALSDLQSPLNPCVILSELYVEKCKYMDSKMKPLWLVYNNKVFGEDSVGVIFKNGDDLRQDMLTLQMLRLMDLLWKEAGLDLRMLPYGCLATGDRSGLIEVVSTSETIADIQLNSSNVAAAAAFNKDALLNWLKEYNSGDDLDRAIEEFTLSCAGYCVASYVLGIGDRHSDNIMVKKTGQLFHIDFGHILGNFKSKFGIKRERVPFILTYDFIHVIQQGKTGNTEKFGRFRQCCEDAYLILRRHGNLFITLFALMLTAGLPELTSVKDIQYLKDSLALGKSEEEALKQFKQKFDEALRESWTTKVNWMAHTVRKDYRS
Data set [11] relates to HeLa. Kind of data set: Antiproliferative activity against human HeLa cells assessed as inhibition of cell growth incubated for 48 to 72 hrs by MTT assay. The data set is classed as functional, cell-based.
Data set [12] relates to HeLa. Description: Induction of apoptosis in human HeLa cells assessed as dead cells at 0.15625 uM incubated for 36 hrs by Annexin V-FITC/PI staining based flow cytometric analysis (reference value: 0.44 %). The conditions noted are these: 0.1562 µM. The class given is functional.
A short description of data set [13]: AUC (0 to infinity) in Sprague-Dawley rat at 10 mg/kg, po measured for 24 hrs by LC-MS/MS analysis. The following applies: in vivo. Set-up: time 24 hrs, dose 10 mg/kg, route po. The class given is ADME, organism-based.
The nature of data set [14]: Tmax in Sprague-Dawley rat at 10 mg/kg, po measured for 24 hrs by LC-MS/MS analysis. The class given is ADME, organism-based. The following applies: in vivo.
The next data set relates to NCI-H446. Kind of data set: Antiproliferative activity against PTEN-null human NCI-H446 cells assessed as inhibition of cell growth incubated for 48 to 72 hrs by MTT assay. The data set is classed as functional, cell-based.
The subject of data set [15] is HeLa. Kind of data set: Inhibition of colony formation in human HeLa cells assessed as reduction in colony forming ability incubated for 15 days by crystal violet staining based analysis. The class given is functional, cell-based. The conditions noted are these: dose 0.15625-1.25 µM, time 15.0 day, DDE = dose-dependent effect.
Data set [16] can be described thus: Cmax in Sprague-Dawley rat at 10 mg/kg, po measured for 24 hrs by LC-MS/MS analysis. The class given is ADME, organism-based. Set-up: time 24 hrs, dose 10 mg/kg, route po. The following applies: in vivo.
In data set [17] the target is T1, Phosphatidylinositol 4,5-bisphosphate 3-kinase catalytic subunit delta isoform (Homo sapiens, UniProt O00329).
T1 sequence (O00329 whole entry): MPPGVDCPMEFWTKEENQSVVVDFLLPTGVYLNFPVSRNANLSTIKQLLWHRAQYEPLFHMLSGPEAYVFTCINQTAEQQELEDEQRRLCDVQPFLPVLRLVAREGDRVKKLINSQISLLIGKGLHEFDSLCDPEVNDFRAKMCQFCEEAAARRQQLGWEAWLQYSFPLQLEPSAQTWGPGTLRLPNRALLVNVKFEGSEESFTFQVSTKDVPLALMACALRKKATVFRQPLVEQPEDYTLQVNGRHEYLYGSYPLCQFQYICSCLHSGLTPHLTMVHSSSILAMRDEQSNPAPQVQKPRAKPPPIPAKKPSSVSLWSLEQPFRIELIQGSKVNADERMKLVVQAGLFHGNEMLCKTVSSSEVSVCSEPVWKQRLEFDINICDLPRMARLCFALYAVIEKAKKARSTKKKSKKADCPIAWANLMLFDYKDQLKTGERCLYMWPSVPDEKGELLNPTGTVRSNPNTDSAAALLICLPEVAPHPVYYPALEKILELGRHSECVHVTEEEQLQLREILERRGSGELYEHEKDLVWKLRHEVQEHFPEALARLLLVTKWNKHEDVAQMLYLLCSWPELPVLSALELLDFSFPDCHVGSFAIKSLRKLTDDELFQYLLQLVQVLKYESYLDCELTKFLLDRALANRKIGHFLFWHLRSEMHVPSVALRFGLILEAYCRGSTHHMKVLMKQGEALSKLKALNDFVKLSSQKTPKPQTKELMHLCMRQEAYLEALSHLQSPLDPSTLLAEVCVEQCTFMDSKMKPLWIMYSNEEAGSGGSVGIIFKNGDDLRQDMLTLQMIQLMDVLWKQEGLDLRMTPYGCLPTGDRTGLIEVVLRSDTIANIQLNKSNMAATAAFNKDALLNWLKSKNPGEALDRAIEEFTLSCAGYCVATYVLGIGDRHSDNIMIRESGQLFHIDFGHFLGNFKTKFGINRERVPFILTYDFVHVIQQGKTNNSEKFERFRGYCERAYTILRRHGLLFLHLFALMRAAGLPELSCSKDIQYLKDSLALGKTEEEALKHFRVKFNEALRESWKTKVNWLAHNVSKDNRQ
Description: Inhibition of PI3Kdelta (unknown origin) using L-alpha-phosphatidylinositol as substrate incubated for 60 mins in presence of ATP by Kinase Glo luminescence assay.

Data set [18] concerns HeLa. Description: Induction of apoptosis in human HeLa cells assessed as dead cells at 0.625 uM incubated for 36 hrs by Annexin V-FITC/PI staining based flow cytometric analysis (reference value: 0.44 %). The data set is classed as functional.
The test system of data set [19] is HeLa. Description: Induction of apoptosis in human HeLa cells assessed as viable cells at 0.15625 uM incubated for 36 hrs by Annexin V-FITC/PI staining based flow cytometric analysis (reference value: 96.14 %). The conditions noted are these: read-out: Activity. The class given is functional.

The values that follow come from ChEMBL document CHEMBL5108059, “Discovery of 2-Methyl-2-(4-(2-methyl-8-(1H-pyrrolo[2,3-b]pyridin-6-yl)-1H-naphtho[1,2-d]imidazol-1-yl)phenyl)propanenitrile as a Novel PI3K/mTOR Inhibitor with Enhanced Antitumor Efficacy In Vitro and In Vivo” (J Med Chem, 2022).

Each structure is given as a SMILES string.

With `Cc1nc2cnc3ccc(-c4cnc5[nH]ccc5c4)cc3c2n1-c1ccc(C(C)(C)C#N)nc1`, the Activity in the data set with HeLa [1] was 6.13%; in the data set with HeLa [3], 1.92%; in the data set with HeLa [4] it was 7.4%; in data set [5], “Non-Toxic”; in data set [7] it was “Non-Toxic”; in the data set on L02, “Non-Toxic”. Further, the results for the Activity entry (in data set [9]; with HeLa [12]; in the data set with HeLa [18]) were “Non-Toxic”, 0.4% and 2.75%, respectively. For the same molecule, the viability at 1.25 µM in the data set on HeLa [2] was found to be 41.2%. The inhibition in vivo at 30 mg/kg in the data set with HeLa [6] worked out at 73.5%. Moreover, the IC50 (usually the point on the concentration scale where inhibition reaches its midpoint) in data set [8] stood at 3.5 nM; with NCI-H3122, 290 nM; in data set [10], 75 nM; in the data set with HeLa [11], 90 nM; in the data set with NCI-H446, 970 nM; in [17] it was 7 nM. Moreover, the AUC (in general, concentration integrated over time) in data set [13] amounted to 7620 ng·h/mL. In addition, in data set [14], the Tmax (in general, the time at which the peak concentration occurs) stood at 45 min. Further, the inhibition result in the data set on HeLa [15] is “Dde”. Moreover, the Cmax (usually the peak of the concentration-time curve) in data set [16] was found to be 2995 ng/mL. In the data set with HeLa [19], the viability at 0.1562 µM was found to be 93.5%.
